Activity data for seven compounds are collected here from ChEMBL document CHEMBL1629509, “Design, synthesis and inhibitory activity against Mycobacterium tuberculosis thymidine monophosphate kinase of acyclic nucleoside analogues with a distal imidazoquinolinone” (Eur J Med Chem, 2010).

Activity calls are given as the source filed them. The calls are words filed in the database; no cut-off is given here.

For this assay, the system named is Mycobacterium tuberculosis variant bovis BCG. Put plainly: Antimycobacterial activity against Mycobacterium bovis BCG Pasteur assessed as growth inhibition at 160 ug/ml by resazurin microtiter plate assay. The assay is classed as functional, organism-based. On the technique in general: Alamar Blue is a resazurin reagent that responds to reducing activity.

On to `Cc1cn(C/C=C/CN2c3cccc4c3N(CCC4)S2(=O)=O)c(=O)[nH]c1=O`, for which the outcome was inactive.
Take `CC(=O)Nc1cc2c3c(c1)n(C/C=C/Cn1cc(C)c(=O)[nH]c1=O)c(=O)n3CCC2`: the outcome was inactive.
For `Cc1cn(C/C=C/Cn2c(=O)n3c4c(cc(N)cc42)CCC3)c(=O)[nH]c1=O` the value was “inactive”; for `Cc1cn(C/C=C/Cn2c(=O)n3c4c(cccc42)CCC3)c(=O)[nH]c1=O`, “inactive”.
For `CC(=O)NC1Cc2cccc3c2n(c(=O)n3C/C=C/Cn2cc(C)c(=O)[nH]c2=O)C1` (configuration not stated), the result was inactive.
Consider `O=c1[nH]c(=O)n(C/C=C/CN2c3cccc4c3N(CCC4)S2(=O)=O)cc1Br`, for which the outcome was inactive.
For the compound `Cc1cn(C/C=C/Cn2c(=O)n3c4c(cccc42)CC(N)C3)c(=O)[nH]c1=O` (configuration not stated), the outcome was inactive.
